Reference: ChEMBL document CHEMBL4699477, “Tricyclic sulfones as potent, selective and efficacious RORγt inverse agonists - Exploring C6 and C8 SAR using late-stage functionalization” (Bioorg Med Chem Lett, 2020)
Converted amounts (≈) assume the structure as drawn.

Experiments:
[1] = molecular target: T1, Nuclear receptor ROR-beta (Homo sapiens, UniProt Q92753); assay: Inhibition of GAL4-fused RORbeta (unknown origin)
T1 sequence (Q92753 whole entry): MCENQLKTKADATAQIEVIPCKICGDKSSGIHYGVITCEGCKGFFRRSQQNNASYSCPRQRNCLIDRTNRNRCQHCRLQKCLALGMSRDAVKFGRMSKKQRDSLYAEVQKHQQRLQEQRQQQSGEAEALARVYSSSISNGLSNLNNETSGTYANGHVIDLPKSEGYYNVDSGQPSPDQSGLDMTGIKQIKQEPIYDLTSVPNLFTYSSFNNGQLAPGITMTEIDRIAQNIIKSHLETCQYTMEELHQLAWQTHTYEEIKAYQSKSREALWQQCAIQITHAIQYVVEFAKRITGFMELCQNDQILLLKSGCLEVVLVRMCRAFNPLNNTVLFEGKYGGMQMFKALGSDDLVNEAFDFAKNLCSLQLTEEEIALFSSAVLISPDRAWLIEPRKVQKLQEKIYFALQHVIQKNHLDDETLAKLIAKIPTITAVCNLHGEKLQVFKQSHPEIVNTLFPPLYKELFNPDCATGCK

Cytochrome P450 2C8 = molecular target: T2, Cytochrome P450 2C8 (Homo sapiens, UniProt P10632); assay: Inhibition of recombinant CYP2C8 (unknown origin); format: ADME
T2 sequence (P10632 whole entry): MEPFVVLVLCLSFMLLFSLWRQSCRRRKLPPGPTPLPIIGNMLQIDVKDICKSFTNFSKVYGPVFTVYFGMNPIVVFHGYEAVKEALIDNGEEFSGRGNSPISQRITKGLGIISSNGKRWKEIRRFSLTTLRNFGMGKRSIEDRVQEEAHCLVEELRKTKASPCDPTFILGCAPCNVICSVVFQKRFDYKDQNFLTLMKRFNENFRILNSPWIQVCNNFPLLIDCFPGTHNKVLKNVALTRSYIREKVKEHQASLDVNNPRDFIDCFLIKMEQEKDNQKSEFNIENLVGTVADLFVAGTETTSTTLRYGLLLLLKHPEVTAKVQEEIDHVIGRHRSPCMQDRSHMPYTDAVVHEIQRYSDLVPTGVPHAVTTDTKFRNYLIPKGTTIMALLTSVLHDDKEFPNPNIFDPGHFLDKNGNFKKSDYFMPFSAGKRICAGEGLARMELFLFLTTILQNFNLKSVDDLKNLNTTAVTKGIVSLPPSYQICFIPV

[2] = Cmax in cynomolgus monkey at 2 mg/kg, po; format: ADME, organism-based, Macaca fascicularis; set-up: route oral, dose 2 mg/kg; details: in vivo
[3] = Permeability in human Caco-2 cells; format: ADME, cell-based; details: read-out: permeability
[4] = Cmax in BALB/c mouse at 4 mg/kg, po; format: ADME, organism-based; set-up: route oral, dose 4 mg/kg; details: in vivo
[5] = Total AUC in dog at 1 mg/kg, iv; format: ADME, organism-based, Canis lupus familiaris; set-up: route intravenous, time AUCmax, dose 1 mg/kg; details: in vivo
[6] = Total AUC in dog at 2 mg/kg, po; format: ADME, organism-based, Canis lupus familiaris; set-up: time AUCmax, route oral, dose 2 mg/kg; details: in vivo
[7] = Cmax in dog at 2 mg/kg, po; format: ADME, organism-based, Canis lupus familiaris; set-up: route oral, dose 2 mg/kg; details: in vivo
[8] = Solubility of compound at pH 1; format: physicochemical; details: buffer
Cytochrome P450 1A2 = molecular target: T3, Cytochrome P450 1A2 (Homo sapiens, UniProt P05177); assay: Inhibition of recombinant CYP1A2 (unknown origin); format: ADME
T3 sequence (P05177 whole entry): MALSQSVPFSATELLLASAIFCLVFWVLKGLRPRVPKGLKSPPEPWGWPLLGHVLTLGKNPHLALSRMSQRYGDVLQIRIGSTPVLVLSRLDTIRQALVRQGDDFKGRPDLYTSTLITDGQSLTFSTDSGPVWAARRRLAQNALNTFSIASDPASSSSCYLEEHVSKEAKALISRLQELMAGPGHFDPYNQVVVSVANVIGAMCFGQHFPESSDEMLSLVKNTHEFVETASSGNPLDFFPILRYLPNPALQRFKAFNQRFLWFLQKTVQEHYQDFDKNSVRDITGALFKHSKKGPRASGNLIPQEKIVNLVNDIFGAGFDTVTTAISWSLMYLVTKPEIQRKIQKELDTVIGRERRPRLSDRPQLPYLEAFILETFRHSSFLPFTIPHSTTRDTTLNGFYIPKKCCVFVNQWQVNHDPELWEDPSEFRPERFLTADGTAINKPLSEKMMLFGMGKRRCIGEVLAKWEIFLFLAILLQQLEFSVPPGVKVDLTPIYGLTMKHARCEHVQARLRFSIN

[9] = molecular target: T4, Nuclear receptor ROR-gamma (Mus musculus, UniProt P51450); assay: Inverse agonist activity at RORgammat in mouse Th17 cells; format: cell-based
T4 sequence (P51450 whole entry): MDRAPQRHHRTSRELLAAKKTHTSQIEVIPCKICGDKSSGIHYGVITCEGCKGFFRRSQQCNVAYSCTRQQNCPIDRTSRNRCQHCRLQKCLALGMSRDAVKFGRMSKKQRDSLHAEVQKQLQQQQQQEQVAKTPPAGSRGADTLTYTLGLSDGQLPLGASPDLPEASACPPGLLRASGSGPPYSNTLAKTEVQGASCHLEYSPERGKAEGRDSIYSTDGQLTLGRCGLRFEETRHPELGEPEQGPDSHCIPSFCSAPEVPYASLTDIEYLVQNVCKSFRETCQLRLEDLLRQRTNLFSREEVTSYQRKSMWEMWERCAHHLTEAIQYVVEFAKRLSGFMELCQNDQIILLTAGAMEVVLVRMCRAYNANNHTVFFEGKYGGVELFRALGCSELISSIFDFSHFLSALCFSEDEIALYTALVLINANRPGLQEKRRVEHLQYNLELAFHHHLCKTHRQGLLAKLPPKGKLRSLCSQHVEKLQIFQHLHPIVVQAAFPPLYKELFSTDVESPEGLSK

Cytochrome P450 2C19 = Cytochrome P450 2C19 (Homo sapiens, UniProt P33261); assay: Inhibition of recombinant CYP2C19 (unknown origin); format: ADME
Sequence of Cytochrome P450 2C19 (P33261 whole entry): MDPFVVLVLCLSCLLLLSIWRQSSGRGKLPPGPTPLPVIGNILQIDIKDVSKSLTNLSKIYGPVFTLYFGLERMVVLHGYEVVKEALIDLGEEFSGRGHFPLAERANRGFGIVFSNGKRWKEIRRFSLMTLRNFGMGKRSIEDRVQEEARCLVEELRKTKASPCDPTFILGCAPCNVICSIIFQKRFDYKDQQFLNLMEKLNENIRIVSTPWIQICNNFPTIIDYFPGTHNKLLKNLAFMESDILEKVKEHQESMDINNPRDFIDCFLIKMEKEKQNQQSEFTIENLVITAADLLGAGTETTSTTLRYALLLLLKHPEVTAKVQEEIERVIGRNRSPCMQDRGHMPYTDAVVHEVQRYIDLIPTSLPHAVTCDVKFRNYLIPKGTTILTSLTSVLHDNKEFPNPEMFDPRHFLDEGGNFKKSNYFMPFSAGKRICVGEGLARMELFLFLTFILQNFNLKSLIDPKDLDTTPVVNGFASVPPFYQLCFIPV

[10] = Clearance in rat at 2 mg/kg, iv; format: ADME, organism-based; details: in vivo
[11] = Oral bioavailability in dog at 2 mg/kg; format: ADME, organism-based, Canis lupus familiaris; details: in vivo
[12] = Clearance in dog at 1 mg/kg, iv; format: ADME, organism-based, Canis lupus familiaris; details: in vivo

C[C@H]1C[C@H](C(=O)O)CC[C@H]1C(=O)N1CC[C@@]2(S(=O)(=O)c3ccccc3)c3cc(F)c(C(F)(C(F)(F)F)C(F)(F)F)cc3CC[C@@H]12
EC50 [1]: > 10000 nM | IC50 (Cytochrome P450 2C8): 1900 nM | Cmax [2]: 3.9 µM | Papp [3]: 12 ×10⁻⁶ cm/s | Cmax [4]: 4.6 µM | AUC [5]: 80 µM·h | AUC [6]: 144 µM·h | Cmax [7]: 3.8 µM | solubility [8]: 1.4 µg/mL (≈ 2.1 µM) | IC50 (Cytochrome P450 1A2): > 20000 nM | EC50 [9]: 2 nM | IC50 (Cytochrome P450 2C19): > 20000 nM | clearance [10]: 2.6 mL/min/kg | bioavailability [11]: 90% | clearance [12]: 0.3 mL/min/kg
